“And” between values parts separate entries of the source, which are not always exact repeats. Equal entries are not always repeated. Where two headings read alike, the source gives them in different places. Each block holds one compound with its values, some of them ahead of it.
How the values were obtained:
[1] = Metabolic stability in fresh human plasma (LC/MS/MS peak heights); assay type: in vitro ADME; details: for % Remaining: plasma; for Peak Height: duplicate aliquots
Description: Compounds A1-A3 were independently spiked directly into an individual lot of fresh human plasma, with sodium heparin as the anticoagulant, such that the final assay concentration of each compound was 1.00 μM. After incubation at room temperature for 0, 0.5, 1, 2, and 4 hours, samples were removed and aliquoted for analysis. Valacyclovir was used as a positive control. The plasma samples containing a test compound were processed by protein precipitation.
A primary 1.00 mM stock solution of a test compound was prepared in either acetonitrile or acetonitrile:water (1:1, v/v). A 0.200 mM working stock was made from the primary stock in acetonitrile water (1:1, v/v), which was used in the human plasma stabiltity study. The primary and working stock solutions were stored at −20° C. when not in use. When it was used in the assay, the working stock was kept at room temperature for as short a time as possible.
The human plasma stabiltity study was initiated by adding 5.00 μL of a test compound stock solution to 0.995 mL of human plasma (sodium heparin) in a 1.7-mL snap tube. Time zero points were generated by immediately removing duplicate 50.0 μL aliquots of plasma after initiating each incubation and quenching in 150 μL of methanol. The plasma incubation tubes were capped and remained at room temperature between time points.
After 0.5, 1, 2, and 4 hours of incubation, duplicate 50.0 μL aliquots of plasma were removed and placed into the extraction tubes containing 150 μL of methanol. Each time point was immediately extracted by vortex mixing, centrifuged, and the supernate removed to HPLC vial for analysis. After extraction of all samples, the extracts were analyzed by LC/MS/MS.
LC/MS/MS analysis of the incubation solutions was conducted by initial separation of a test compound peak using chromatography prior to detection by a mass spectrometer. The LC/MS system was comprised of a HPLC coupled with a TQS-Micro or Quattro Premier. The mobile phase was nebulized using heated nitrogen in a Z-spray source/interface set to electrospray in either positive ionization mode or negative ionization mode. The ionized compounds were detected using MS/MS. The data was acquired using MassLynx.
The peak heights for compounds A1-A3 are presented in Table 1, whereas the peak heights for the positive control are shown in Table 2.

[2] = Pharmacokinetic study of compound A2 in rats; assay type: in vivo
Description: A pharmacokinetic study on compound A2 was carried out in rats.

[3] = Compound A2 concentration in the CSF of rats; assay type: in vivo
Description: Compound A2 in the CSF of the rats was also analyzed. The results are shown in Table 4 below, wherein BQL stands for below the quantifiable limit of 2.0 ng/mL.

[4] = fresh human plasma, 1.00 μM, room temperature, 0 h
[5] = fresh human plasma, 1.00 μM, room temperature, 0.5 h
[6] = fresh human plasma, 1.00 μM, room temperature, 4 h

Mean Height ([1]; human, 0 h, 1 μM): 4,250
Mean Height ([1]; human, 0.5 h, 1 μM): 3,740
Mean Height ([1]; human, 1 h, 1 μM): 3,680
Mean Height ([1]; human, 2 h, 1 μM): 3,510
Mean Height ([1]; human, 4 h, 1 μM): 3,670
% Remaining ([1]; human, 0 h, 1 μM): 100%
% Remaining ([1]; human, 0.5 h, 1 μM): 88%
% Remaining ([1]; human, 1 h, 1 μM): 87%
% Remaining ([1]; human, 2 h, 1 μM): 83%
% Remaining ([1]; human, 4 h, 1 μM): 86%
Structure (SMILES): CS(=O)(=O)Nc1cccc(NS(=O)(=O)c2ccc(C(=O)O)cc2)c1 [Compound A1, 4-(N-(3-(methylsulfonamido)phenyl)sulfamoyl)benzoic acid]

Mean Height ([1]; human, 0 h, 1 μM): 12,600
Mean Height ([1]; human, 0.5 h, 1 μM): 13,300
Mean Height ([1]; human, 1 h, 1 μM): 13,000
Mean Height ([1]; human, 2 h, 1 μM): 13,000
Mean Height ([1]; human, 4 h, 1 μM): 13,100
% Remaining ([1]; human, 0 h, 1 μM): 100%
% Remaining ([1]; human, 0.5 h, 1 μM): 106%
% Remaining ([1]; human, 1 h, 1 μM): 103%
% Remaining ([1]; human, 2 h, 1 μM): 103%
% Remaining ([1]; human, 4 h, 1 μM): 104%
AUCINF/Dose ([2]; IV): 13800
CL or CL/F ([2]; IV): 1.2 mL/min/kg
HL ([2]; IV): 5 h
AUCINF/Dose ([2]; PO): 6420
HL ([2]; PO): 7 h
AUC(0-inf) ([2]; rat, in vivo, 1 mg/kg, IV): 13800 ng·h/mL
AUC(0-t) ([2]; rat, in vivo, 1 mg/kg, IV): 13400 ng·h/mL
Cmax ([2]; rat, in vivo, 1 mg/kg, IV): 4310 ng/mL
AUC(0-inf) ([2]; rat, in vivo, 10 mg/kg, PO): 64200 ng·h/mL
AUC(0-t) ([2]; rat, in vivo, 10 mg/kg, PO): 56200 ng·h/mL
Cmax ([2]; rat, in vivo, 10 mg/kg, PO): 4590 ng/mL
Tmax ([2]; rat, in vivo, 10 mg/kg, PO): 4 h
bioavailability ([2]; rat, in vivo, 10 mg/kg, PO): 45%
CL/F ([2]; rat, in vivo, 10 mg/kg, PO, read-out: CL or CL/F): 2.6 mL/min/kg
CSF Concentration ([3]; IV, 1.0 h, individual animals): 4.2 ng/mL and 17 ng/mL
CSF Concentration ([3]; PO, 1.0 h, individual animals): 5.3 ng/mL and 32 ng/mL and 6.7 ng/mL
CSF Concentration ([3]; PO, 2.0 h, individual animals): 2.8 ng/mL and 3.1 ng/mL
CSF Concentration ([3]; PO, 4.0 h, individual animals): 139 ng/mL and 56 ng/mL
CSF Concentration ([3]; PO, 12 h, individual animals): 1.5 ng/mL and 11 ng/mL
concentration at 1 h ([3]; rat, CSF, iv, 1 mg/kg, 1.0 h, mean): 11 ng/mL
concentration at 0.5 h ([3]; rat, CSF, iv, 1 mg/kg, IV, 0.5 h, mean, read-out: CSF Concentration, Mean): 33 ng/mL
concentration at 2 h ([3]; rat, CSF, iv, 1 mg/kg, IV, 2.0 h, individual animals, read-out: CSF Concentration): 4.9 ng/mL
concentration at 2 h ([3]; rat, CSF, iv, 1 mg/kg, IV, 2.0 h, mean, read-out: CSF Concentration, Mean): 4.9 ng/mL
concentration at 4 h ([3]; rat, CSF, iv, 1 mg/kg, IV, 4.0 h, individual animals, read-out: CSF Concentration): 15 ng/mL
concentration at 4 h ([3]; rat, CSF, iv, 1 mg/kg, IV, 4.0 h, mean, read-out: CSF Concentration, Mean): 15 ng/mL
concentration at 8 h ([3]; rat, CSF, iv, 1 mg/kg, IV, 8.0 h, individual animals, read-out: CSF Concentration): 1.4 ng/mL
concentration at 8 h ([3]; rat, CSF, iv, 1 mg/kg, IV, 8.0 h, mean, read-out: CSF Concentration, Mean): 1.4 ng/mL
concentration at 1 h ([3]; rat, CSF, po, 10 mg/kg, 1.0 h, mean): 15 ng/mL
concentration at 12 h ([3]; rat, CSF, po, 10 mg/kg, 12 h, mean): 6.5 ng/mL
concentration at 0.5 h ([3]; rat, CSF, po, 10 mg/kg, PO, 0.5 h, individual animals, read-out: CSF Concentration): 2.7 ng/mL
concentration at 0.5 h ([3]; rat, CSF, po, 10 mg/kg, PO, 0.5 h, mean, read-out: CSF Concentration, Mean): 3.5 ng/mL
concentration at 2 h ([3]; rat, CSF, po, 10 mg/kg, PO, 2.0 h, individual animals, read-out: CSF Concentration): 3.6 ng/mL
concentration at 2 h ([3]; rat, CSF, po, 10 mg/kg, PO, 2.0 h, mean, read-out: CSF Concentration, Mean): 3.2 ng/mL
concentration at 4 h ([3]; rat, CSF, po, 10 mg/kg, PO, 4.0 h, mean, read-out: CSF Concentration, Mean): 97.4 ng/mL
concentration at 8 h ([3]; rat, CSF, po, 10 mg/kg, PO, 8.0 h, mean, read-out: CSF Concentration, Mean): 11 ng/mL
concentration at 24 h ([3]; rat, CSF, po, 10 mg/kg, PO, 24 h, individual animals, read-out: CSF Concentration): 2 ng/mL
concentration at 24 h ([3]; rat, CSF, po, 10 mg/kg, PO, 24 h, mean, read-out: CSF Concentration, Mean): 2 ng/mL
Structure (SMILES): Cc1ccc(C(F)(F)F)cc1NS(=O)(=O)c1cccc(C(=O)O)c1 [Compound A2, 3-(N-(2-methyl-5-(trifluoromethyl)phenyl)sulfamoyl)benzoic acid]
CSF Concentration ([3]; IV, 0.00 h, individual animals): BQL (BQL stands for below the quantifiable limit of 2.0 ng/mL)
CSF Concentration ([3]; IV, 0.5 h, individual animals): 65 ng/mL and 0.95 ng/mL and BQL (BQL stands for below the quantifiable limit of 2.0 ng/mL)
CSF Concentration ([3]; IV, 2.0 h, individual animals): BQL (BQL stands for below the quantifiable limit of 2.0 ng/mL)
CSF Concentration ([3]; IV, 8.0 h, individual animals): BQL (BQL stands for below the quantifiable limit of 2.0 ng/mL)
CSF Concentration ([3]; IV, 12 h, individual animals): BQL (BQL stands for below the quantifiable limit of 2.0 ng/mL)
CSF Concentration ([3]; IV, 24 h, individual animals): BQL (BQL stands for below the quantifiable limit of 2.0 ng/mL)
CSF Concentration ([3]; PO, 0.00 h, individual animals): BQL (BQL stands for below the quantifiable limit of 2.0 ng/mL)
CSF Concentration ([3]; PO, 0.5 h, individual animals): 4.3 ng/mL and BQL (BQL stands for below the quantifiable limit of 2.0 ng/mL)
CSF Concentration ([3]; PO, 8.0 h, individual animals): BQL (BQL stands for below the quantifiable limit of 2.0 ng/mL) and 1.6 ng/mL and 20 ng/mL
CSF Concentration ([3]; PO, 24 h, individual animals): BQL (BQL stands for below the quantifiable limit of 2.0 ng/mL)

Mean Height ([1]; human, 0 h, 1 μM): 4,210
Mean Height ([1]; human, 0.5 h, 1 μM): 4,100
Mean Height ([1]; human, 1 h, 1 μM): 3,660
Mean Height ([1]; human, 2 h, 1 μM): 3,440
Mean Height ([1]; human, 4 h, 1 μM): 3,850
% Remaining ([1]; human, 0 h, 1 μM): 100%
% Remaining ([1]; human, 0.5 h, 1 μM): 97%
% Remaining ([1]; human, 1 h, 1 μM): 87%
% Remaining ([1]; human, 2 h, 1 μM): 82%
% Remaining ([1]; human, 4 h, 1 μM): 91%
Structure (SMILES): COc1cc(NS(=O)(=O)c2cccc(C(=O)O)c2)cc(OC)c1 [Compound A3, 3-(N-(3,5-dimethoxyphenyl)sulfamoyl)benzoic acid]

Mean Height [1, 4]: 21,400
Peak Height [1, 4]: 21,201 and 21,603
Mean Height [1, 5]: 20,700
Peak Height [1, 5]: 21,055 and 20,329
Mean Height ([1]; fresh human plasma, 1.00 μM, room temperature, 1 h): 20,500
Peak Height ([1]; fresh human plasma, 1.00 μM, room temperature, 2 h): 19,941 and 19,624
Mean Height [1, 6]: 17,700
Peak Height [1, 6]: 17,697 and 17,785
Mean Height ([1]; human, 2 h, 1 μM): 19,800
% Remaining ([1]; human, 0 h, 1 μM): 100%
% Remaining ([1]; human, 0.5 h, 1 μM): 96.7%
% Remaining ([1]; human, 1 h, 1 μM): 95.8%
% Remaining ([1]; human, 2 h, 1 μM): 92.5%
% Remaining ([1]; human, 4 h, 1 μM): 82.7%
Structure (SMILES): CC(C)[C@H](N)C(=O)OCCOCn1cnc2c(=O)[nH]c(N)nc21 [Valacyclovir, reference compound]
